{"source": "patent US5116816A", "about": "“Cyclosporin peptolides having an α-hydroxycarboxylic acid at position 8” (Sandoz Ltd., priority 1987, dated 1992)", "system": "UV erythema", "experiment": "UV Erythema test", "type": "in vivo, guinea pigs", "conditions": "topical solution, erythema estimated four hours after application", "method": "The test is carried out on female albino guinea pigs, approx. 150 g wt. The animals are shaved on both flanks using a Braun micro razor, without causing skin irritation. For each test substance five animals are subjected to a defined intensity of UV radiation for 10 seconds on each of four areas of skin (10 mm diameter). Immediately afterwards 50 microliters of a solution of the test substance in ethanol/propylene glycol/dimethylacetamide (19:19:2 v/v) is applied to two of the irradiated areas on each animal and 50 microliters of the solvent mixture to the other two as controls. Four hours after application, the degree of erythema is estimated visually."}
{"compound": "COc1ccc2c(c1)c(CC(=O)O)c(C)n2C(=O)c1ccc(Cl)cc1", "note": "[indomethacin]", "values": [{"measurement": "effective concentration in UV-erythema test", "result": 2.5, "unit": "%"}]}
